# Values quoted from earlier work in patent US20190142979A1, “CONTRAST MEDIUM AND METHODS INVOLVED IN PREPARATION FOR THE DETERMINATION OF PATENCY OF CONDUITS” (priority 2016, published 2019).
smiles,measurement,setting,value
CCN(CC)CC(=O)Nc1c(C)cccc1C [Lidocaine],alteration of fertility levels,post administration,not reported
same,safety,upon injection into uterine cavity or into peritoneal cavity,highly safe
